Laboratory results from publication PMC12118597 (Science Advances, 2025).
Several values for one entry are separate records, joined by “and”; a condition that tells them apart may be missing. Equal entries are not always repeated. Entries after “also recorded” stand apart in the source; their conditions may differ. Where two headings read alike, the source gives them in different places.

Assays:
[1] = biological target: T1, SARS-CoV-2 NSP3 macrodomain (Mac1) (Severe acute respiratory syndrome coronavirus 2, UniProt P0DTD1); experiment: biochemical; format: binding
[2] = biological target: T1, SARS-CoV-2 NSP3 macrodomain (Mac1); format: binding; settings: for Total number of conformations: ligand conformations modeled in the crystal structure; for 2*(1-BDC) (%): occupancy estimate from PanDDA; for 1-BDC (PanDDA run, DMSO background map): event 1
[3] = HTRF binding curve, SARS-CoV-2 Mac1
[4] = SARS CoV-2 macrodomain HTRF assay, dose-response
[5] = PanDDA background density correction factor
[6] = crystal soak 10 mM, P43 crystal form
[7] = ligand-bound crystal structure obtained (TRUE)
[8] = refined crystallographic occupancy
[9] = site occupied in X-ray crystal structure
[10] = TRUE = crystal structure with ligand obtained
[11] = site of ligand in X-ray crystal structure
[12] = PanDDA background density correction, 1-BDC
[13] = crystal soak, 10 mM soak concentration, P43 crystal form
[14] = crystal soak concentration 10 mM
[15] = crystal soak concentration 10 mM, P43 crystals
[16] = open state of Phe132 loop seen in the ligand-bound structure

SMILES | Hill slope [1, 3] | Hill slope [1, 4] | X-ray crystal structure [2, 7] | 2*(1-BDC) (%) [2] | Binding site [2, 9] | 1-BDC [2, 12] | Hit (PanDDA run, DMSO background map) ([2]; crystal soak 10 mM) | 1-BDC (PanDDA run, DMSO background map) ([2]; crystal soak 10 mM) | Hit (PanDDA run, overall) [2, 13] | Refined ligand occupancy (%) ([2]; crystallographic refinement) | also measured
OCC1C2CCC(C2)N1c1ncnc2[nH]ccc12 (stereo not shown) [AVI-3713] | 1.1 | 1.1 | TRUE | 58% | Adenosine | – | – | – | – | – | Occupancy difference (refined_occupancy - 2*(1-BDC)) [2]: 0; 1-BDC [2, 5]: 0.29; PanDDA run, overall: Hit [2, 6]: TRUE; PanDDA run, DMSO background map: 1-BDC ([2]; crystal soak 10 mM): 0.29; PanDDA run, DMSO background map: Hit ([2]; crystal soak 10 mM): TRUE; Total number of conformations [2]: 1; Refined ligand occupancy (%) [2, 8]: 58%
OC[C@@H]1C[C@@H]2CCC[C@@H]2N1c1ncnc2[nH]ccc12 [AVI-3720] | 1.2 | 1.2 | TRUE | 58% | Adenosine | – | – | – | – | – | Occupancy difference (refined_occupancy - 2*(1-BDC)) [2]: 0; Phe132 loop open state [2]: TRUE; 1-BDC [2, 5]: 0.29; PanDDA run, overall: Hit [2, 6]: TRUE; PanDDA run, DMSO background map: 1-BDC ([2]; crystal soak 10 mM): 0.29; PanDDA run, DMSO background map: Hit ([2]; crystal soak 10 mM): TRUE; Total number of conformations [2]: 1; Refined ligand occupancy (%) [2, 8]: 58%
O=C(O)C(F)(F)F.OC1([C@H]2CCCN2c2ncnc3[nH]ccc23)Cc2ccccc2C1 [AVI-3731] | 1.1 | 1.1 | TRUE | 40% | Adenosine | – | – | – | – | – | inhibition at 200 µM ([1]; SARS CoV-2 macrodomain HTRF assay, single dose concentration 200 μM, read-out: Average % competition): 100%; inhibition at 200 µM ([1]; compound at 200 μM, mean of three to four technical replicates, read-out: % competition at 200 μM (preliminary HTRF screen)): 100%; Occupancy difference (refined_occupancy - 2*(1-BDC)) [2]: 0; 1-BDC [2, 5]: 0.2; PanDDA run, overall: Hit [2, 6]: TRUE; PanDDA run, DMSO background map: 1-BDC ([2]; crystal soak 10 mM): 0.2; PanDDA run, DMSO background map: Hit ([2]; crystal soak 10 mM): TRUE; Total number of conformations [2]: 1; Refined ligand occupancy (%) [2, 8]: 40%
OCCC(CO)Nc1ncnc2[nH]ccc12 (stereo not shown) [AVI-3734] | 1.2 | 1.2 | – | 50% | – | – | – | – | – | – | Occupancy difference (refined_occupancy - 2*(1-BDC)) [2]: 0; 1-BDC [2, 5]: 0.25; X-ray crystal structure [2, 10]: TRUE; PanDDA run, overall: Hit [2, 6]: TRUE; PanDDA run, DMSO background map: 1-BDC ([2]; crystal soak 10 mM): 0.25; PanDDA run, DMSO background map: Hit ([2]; crystal soak 10 mM): TRUE; Total number of conformations [2]: 1; Refined ligand occupancy (%) [2, 8]: 50%; Binding site [2, 11]: Adenosine
CC(O)C1CCCN1c1ncnc2[nH]ccc12 (stereo not shown) [AVI-4062] | 1.1 | 1.1 | TRUE | 52% | Adenosine | 0.26 | TRUE | 0.26 and 0.29 | TRUE | 70% | –
C[C@H]1CC[C@H](CO)N(c2ncnc3[nH]ccc23)C1 [AVI-4063] | 1.1 | 1.1 | TRUE | 32% | Adenosine | 0.16 | TRUE | 0.21 and 0.16 | TRUE | 50% | –
C[C@@H]1CCN(c2ncnc3[nH]ccc23)[C@H](CO)C1 [AVI-4064] | 1.2 | 1.2 | TRUE | 38% | Adenosine | 0.19 | TRUE | 0.19 | TRUE | 38% | –
O=C(O)C(F)(F)F.OC[C@H](Cc1ccc(O)cc1)Nc1ncnc2[nH]ccc12 [AVI-4066] | 1.1 | 1.1 | – | 40% | – | 0.2 | TRUE | 0.2 and 0.37 and 0.38 | TRUE | 50% | X-ray crystal structure [2, 10]: TRUE; Binding site [2, 11]: Adenosine
CC(C)(O)C1N(c2ncnc3[nH]ccc23)CCC1(C)C (stereo not shown) [AVI-4126] | 1.3 | 1.3 | TRUE | 32% | Adenosine | 0.16 | – | – | – | 40% | Hit (PanDDA run, DMSO background map) [2, 14]: TRUE; Modeled (PanDDA run, DMSO background map) [2, 14]: TRUE; 1-BDC (PanDDA run, DMSO background map) [2, 14]: 0.17 and 0.16; Hit (PanDDA run, overall) [2, 15]: TRUE; Modeled (PanDDA run, overall) [2, 15]: TRUE; Modeling comment (PanDDA run, overall) [2, 15]: Duplicate, not modeled; Phe132 loop open state [2, 16]: TRUE
CC(C)(O)C1C2CCCCC2CN1c1ncnc2[nH]ccc12 (stereo not shown) [AVI-4127] | 1.3 | 1.3 | TRUE | 50% | Adenosine | 0.25 | – | – | – | 60% | Hit (PanDDA run, DMSO background map) [2, 14]: TRUE; Modeled (PanDDA run, DMSO background map) [2, 14]: TRUE; 1-BDC (PanDDA run, DMSO background map) [2, 14]: 0.23 and 0.25; Hit (PanDDA run, overall) [2, 15]: TRUE; Modeled (PanDDA run, overall) [2, 15]: TRUE; Modeling comment (PanDDA run, overall) [2, 15]: Duplicate, not modeled; Phe132 loop open state [2, 16]: TRUE
CC(C)(O)C1C2CCC2CN1c1ncnc2[nH]ccc12 (stereo not shown) [AVI-4128] | 1.2 | 1.2 | TRUE | 40% | Adenosine | 0.2 | – | – | – | 60% | Hit (PanDDA run, DMSO background map) [2, 14]: TRUE; Modeled (PanDDA run, DMSO background map) [2, 14]: TRUE; 1-BDC (PanDDA run, DMSO background map) [2, 14]: 0.27 and 0.2; Hit (PanDDA run, overall) [2, 15]: TRUE; Modeled (PanDDA run, overall) [2, 15]: TRUE; Modeling comment (PanDDA run, overall) [2, 15]: Duplicate, not modeled; also recorded: Weak density for open conformation
Cc1c[nH]c2ncnc(NCC3(O)CCOCC3)c12 [AVI-4194, 4-(((5-methyl-7H-pyrrolo[2,3-d]pyrimidin-4-yl)amino)methyl)tetrahydro-2H-pyran-4-ol] | 1.3 | 1.3 | TRUE | 18% | Adenosine | 0.09 | – | – | – | 18% | Hit (PanDDA run, DMSO background map) [2, 14]: TRUE; Modeled (PanDDA run, DMSO background map) [2, 14]: TRUE; 1-BDC (PanDDA run, DMSO background map) [2, 14]: 0.13 and 0.09; Hit (PanDDA run, overall) [2, 15]: TRUE; Modeled (PanDDA run, overall) [2, 15]: TRUE; Modeling comment (PanDDA run, overall) [2, 15]: Duplicate, not modeled
Cc1c[nH]c2ncnc(NCC3(O)CCSCC3)c12 [AVI-4195, 4-(((5-methyl-7H-pyrrolo[2,3-d]pyrimidin-4-yl)amino)methyl)tetrahydro-2H-thiopyran-4-ol] | 1.2 | 1.2 | TRUE | 28% | Adenosine | 0.14 | – | – | – | 28% | Hit (PanDDA run, DMSO background map) [2, 14]: TRUE; Modeled (PanDDA run, DMSO background map) [2, 14]: TRUE; 1-BDC (PanDDA run, DMSO background map) [2, 14]: 0.14; Hit (PanDDA run, overall) [2, 15]: TRUE; Modeled (PanDDA run, overall) [2, 15]: TRUE; Modeling comment (PanDDA run, overall) [2, 15]: Duplicate, not modeled
CC1CCCC(O)(CNc2ncnc3[nH]ccc23)C1 (stereo not shown) [AVI-4307] | 1.0 | 1.0 | TRUE | 34% | Adenosine | 0.17 | TRUE | 0.17 | TRUE | 34% | –
OC1(CNc2ncnc3[nH]ccc23)CCC(F)(F)CC1 [AVI-4308] | 1.2 | 1.2 | TRUE | 30% | Adenosine | 0.15 | TRUE | 0.15 | TRUE | 30% | –
OC1(CNc2ncnc3[nH]ccc23)CCCC(C(F)(F)F)C1 (stereo not shown) [AVI-4309] | 1.4 | 1.4 | TRUE | 40% | Adenosine | 0.2 | TRUE | 0.21 | TRUE | 40% | –
CC1(C)CCC(O)(CNc2ncnc3[nH]ccc23)CC1 [AVI-4310] | 1.3 | 1.3 | – | – | – | – | TRUE | 0.14 | TRUE | – | Modeling comment (ligand density) ([2]; crystal soak 10 mM, PanDDA run, overall): Weak density, not modeled
OC1(CNc2ncnc3[nH]ccc23)CCCOC1 (stereo not shown) [AVI-4311] | 1.4 | 1.4 | TRUE | 50% | Adenosine | 0.25 | TRUE | 0.25 | TRUE | 50% | –
CC1CCC(O)(CNc2ncnc3[nH]ccc23)CC1 (stereo not shown) [AVI-4312] | 1.2 | 1.2 | TRUE | 44% | Adenosine | 0.22 | – | – | – | 44% | –
